Test results reported in patent EP0854192A2, “Production of human cathepsin and its use” (Takeda Chemical Industries, Ltd., priority 1992, dated 1994).
Where a SMILES comes first, the peptide text is derived from it. [ ]: non-standard residue; d: D form. The star is where a group is joined. Sta = CC(C)C[C@H](N)[C@@H](O)CC(=O)O; Isovaleryl = CC(C)CC(=O)*; Cbz = O=C(OCc1ccccc1)*; CHN2 = [N-]=[N+]=C*

Target: human cathepsin L (recombinant, of human renal origin cDNA, expressed in COS-7 cells, concentrated culture supernatant) (Homo sapiens, UniProt P07711)
Experiment: Cathepsin L enzyme activity assay with synthetic substrate Z-Phe-Arg-NMec in the presence of enzyme inhibitors (method of Barrett and Kirschke)
Format: biochemical
Conditions: 30°C, 10 minutes; for remaining activity at 1 µM: 1 µM inhibitor added after enzyme activation
Procedure: The culture supernatant of COS-7 transformant prepared in Example 2 was concentrated about 20-fold with Centricut (produced by Kurabo Industries, Ltd., cut-off molecular weight = 10000) and assayed for cathepsin L enzyme activity, according to the method of A. J. Barrett and H. Kirschke [Methods in Enzymology 80, 535 (1981)]. To 25 µl of this concentrated culture supernatant were added 25 µl of 1 M sodium formate buffer (pH 3.0) and 10 µl of 0.1 M DTT, and water was added for a final volume of 250 µl, followed by incubation at 37°C for 30 seconds. After 125 µl of activating buffer (340 mM sodium acetate, 60 mM acetic acid, 4 mM EDTA disodium, pH 5.5) was added, the mixture was kept standing at 30°C for 1 minute for activation. The enzyme reaction was carried out at 30°C for 10 minutes in the presence of 125 µl of a synthetic substrate solution [20 µM Z-Phe-Arg-NMec (Z: benzyloxycarbonyl-, NMec: -7-(4-methyl)coumarylamide)], and stopped by the addition of 500 µl of a reaction stopper (100 mM sodium monochloroacetate, 30 mM sodium acetate, 70 mM acetic acid, pH 4.3). For a control experiment, a culture supernatant of COS-7 cells not expressing cathepsin L was used as an enzyme solution. After termination of the reaction, 100 µl of the reaction mixture was injected into a 96-well fluoroplate (produced by Labo Systems), and the fluorescence intensity of free 7-amino-4-methylcoumarin was determined at a wavelength of 450 nm (excitation wavelength = 365 nm) using a fluorometer FCA (produced by Baxter). In assessing the effects of the following enzyme inhibitors on the present enzyme activity, the inhibitor was added after the above enzyme activating operation. The enzyme inhibitors used were 10 µM leupeptin (cysteine protease inhibitor), 10 µM (p-amidinophenyl)methanesulfonyl fluoride hydrochloride (APMSF: serine protease inhibitor), 1 µM Z-Phe-Phe-CHN2 (cathepsin L inhibitor, -CHN2: -diazomethane) and 1 µM pepstatin A (aspartic acid protease inhibitor).

[1] = read-out: enzyme activity in the presence of enzyme inhibitor, in comparison with the inhibitor-free control

Sequence of human cathepsin L (recombinant, of human renal origin cDNA, expressed in COS-7 cells, concentrated culture supernatant) (P07711 114-333): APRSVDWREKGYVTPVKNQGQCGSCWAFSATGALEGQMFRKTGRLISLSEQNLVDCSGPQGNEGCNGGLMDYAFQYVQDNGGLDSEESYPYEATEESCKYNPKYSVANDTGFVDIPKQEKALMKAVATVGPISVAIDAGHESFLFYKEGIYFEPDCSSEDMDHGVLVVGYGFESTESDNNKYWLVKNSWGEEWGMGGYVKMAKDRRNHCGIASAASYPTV

| Structure (SMILES) | remaining activity at 1 µM [1] | further results |
| --- | --- | --- |
| CC(=O)N[C@@H](CC(C)C)C(=O)N[C@@H](CC(C)C)C(=O)N[C@H](C=O)CCCNC(=N)N [leupeptin] |  | remaining activity at 10 µM (10 µM inhibitor added after enzyme activation, read-out: enzyme activity in the presence of enzyme inhibitor, in comparison with the inhibitor-free control): 3.4% |
| [N-]=[N+]=CC(=O)[C@H](Cc1ccccc1)NC(=O)[C@H](Cc1ccccc1)NC(=O)OCc1ccccc1 [Z-Phe-Phe-CHN2] (Cbz-Phe-Phe-CHN2) | 6.3% |  |
| CC(C)CC(=O)N[C@H](C(=O)N[C@H](C(=O)N[C@@H](CC(C)C)[C@@H](O)CC(=O)N[C@@H](C)C(=O)N[C@@H](CC(C)C)[C@@H](O)CC(=O)O)C(C)C)C(C)C [pepstatin A] (Isovaleryl-VV[Sta]A[Sta]-OH) | 99% |  |
| Cl.N=C(N)c1ccc(CS(=O)(=O)F)cc1 [APMSF, (p-amidinophenyl)methanesulfonyl fluoride hydrochloride] |  | enzyme activity in the presence of enzyme inhibitor, in comparison with the inhibitor-free control (10 µM inhibitor added after enzyme activation, remaining activity): 79% |
